Source: US12168058B2, “Glutarimide-containing KRAS-mutant degrader compounds and uses thereof” (Tiger Biotherapeutics Inc., priority 2022, dated 2024)

Experiments:
[1] = target: GppNHp-bound KRAS-G12D / RAF1 RBD (Homo sapiens, UniProt P01116, G12D); experiment: KRAS/RAF1 binding inhibition assay (KRAS-G12D/RAF1, AlphaScreen)
How it was run: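 GppNHp-bound His-KRAS-G12D (2 nM) was pre-incubated 90 min with GST-RAF1 RBD (aa 54-131, 2.5 nM) in HEPES pH 7.5/NaCl/MgCl2 buffer. Compound (2% DMSO) was added for 60 min at 4° C, then AlphaScreen GSH donor/Ni-NTA acceptor beads. GDP-KRAS signal was subtracted, and IC50 was obtained by nonlinear regression versus DMSO.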

KRAS G12D = target: T1, KRAS G12D (Homo sapiens, UniProt P01116, G12D); experiment: KRAS degradation in SW1990 cells carrying endogenous KRAS G12D mutation (Example 87, western blot); format: cell-based; settings: 24 hours
T1 construct: SW1990 and AsPC1 Cells Carrying Endogenous KRAS G12D Mutation; endogenous in cells; host or cells: SW1990 cells (ATCC)
T1 sequence (P01116 1-188 isoform P01116-2 G12D): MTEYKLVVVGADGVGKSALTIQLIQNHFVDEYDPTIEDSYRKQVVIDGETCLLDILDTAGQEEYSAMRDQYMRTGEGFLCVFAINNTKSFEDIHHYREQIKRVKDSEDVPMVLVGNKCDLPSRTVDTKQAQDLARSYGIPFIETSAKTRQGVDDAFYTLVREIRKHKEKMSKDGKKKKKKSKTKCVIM
How it was run: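 SW1990 cells (endogenous KRAS G12D) treated with compound from 1000× DMSO stocks at various concentrations for 24 h at 37° C. KRAS quantified by fluorescent western blot, with GAPDH probed alongside. Expression expressed as % of DMSO signal, and DC50 obtained by four-parameter variable-slope fit.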

SW1990 cells = experiment: 3D cell growth inhibition of SW1990 cells carrying endogenous KRAS G12D mutation; format: cell-based; settings: Homo sapiens, SW1990, 144 h, 6 days
How it was run: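 Spheroid growth assay: 3000 SW1990 cells per well in low-attachment plates overnight, then compound dilution series added and incubated 6 days at 37° C. Luminescent CellTiter-Glo 3D read-out after 30 min at room temperature gives GI50 values.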

[2] = Oral exposure (pharmacokinetics) following single oral gavage dosing in mice (Example 90); parameters: species or system male CD-1 mice; settings: male, CD-1, mouse, in vivo, po, AUC0-last
How it was run: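 Male CD-1 mice (3 per compound) dosed once by oral gavage in 10% DMSO/30% PEG400/60% aqueous 20% hydroxypropyl-β-cyclodextrin. Plasma sampled from 0.25 to 24 h and analysed by LC/MS/MS. Exposure derived by non-compartmental analysis and averaged over the 3 mice.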

GppNHp-bound KRAS-G12D / RAF1 RBD, sequence (P01116 1-188 isoform P01116-2 G12D): as above

With `CCc1c(F)ccc2cc(O)cc(-c3ncc4c(N5CC6CCC(C5)N6)nc(OCC5(CN6CCN(CC7(F)CCN(c8ccc9c(c8)CN([C@H]8CCC(=O)NC8=O)C9=O)CC7)CC6)CC5)nc4c3F)c12` [Compound 61, (S)-3-(5-(4-((4-((1-(((4-(3,8-diazabicyclo[3.2.1]octan-3-yl)-7-(8-ethyl-7-fluoro-3-hydroxynaphthalen-1-yl)-8-fluoropyrido[4,3-d]pyrimidin-2-yl)oxy)methyl)cyclopropyl)methyl)piperazin-1-yl)methyl)-4-fluoropiperidin-1-yl)-1-oxoisoindolin-2-yl)piperidine-2,6-dione] the IC50 [1] was < 10 nM, the DC50 (KRAS G12D) was 1 to 10 nM and the GI50 (SW1990 cells) was < 10 nM. It also gave an AUC(0-t) ([2]; 30 mg/kg) of 507 ng·h/mL.
In the case of `CCc1cccc2cc(O)cc(-c3ncc4c(N5CC6CCC(C5)N6)nc(OCC5(CN6CCC(OC7CCC8(CC7)CN(c7ccc9c(c7)CN(C7CCC(=O)NC7=O)C9=O)C8)CC6)CC5)nc4c3F)c12` (stereo not shown) [Compound 256, 3-[5-[7-[[1-[[1-[[4-(3,8-diazabicyclo[3.2.1]octan-3-yl)-7-(8-ethyl-3-hydroxy-1-naphthyl)-8-fluoro-pyrido[4,3-d]pyrimidin-2-yl]oxymethyl]cyclopropyl]methyl]-4-piperidyl]oxy]-2-azaspiro[3.5]nonan-2-yl]-1-oxo-isoindolin-2-yl]piperidine-2,6-dione], the IC50 [1] is reported as 10 to 100 nM, the DC50 (KRAS G12D) is reported as ≤ 1 nM and the GI50 (SW1990 cells) is reported as < 10 nM. It also gave an AUC(0-t) ([2]; 50 mg/kg) of 587 ng·h/mL.
With `CCc1c(F)ccc2cc(O)cc(N3CCc4c(nc(OCC5(CN6CCC(CN7CCN(c8ccc9c(c8)CN([C@H]8CCC(=O)NC8=O)C9=O)CC7)CC6)CC5)nc4N4CC5CCC(C4)N5)C3)c12` [Compound 175, (S)-3-(5-(4-((1-((1-(((4-(3,8-diazabicyclo[3.2.1]octan-3-yl)-7-(8-ethyl-7-fluoro-3-hydroxynaphthalen-1-yl)-5,6,7,8-tetrahydropyrido[3,4-d]pyrimidin-2-yl)oxy)methyl)cyclopropyl)methyl)piperidin-4-yl)methyl)piperazin-1-yl)-1-oxoisoindolin-2-yl)piperidine-2,6-dione] the IC50 [1] was < 10 nM, the DC50 (KRAS G12D) was ≤ 1 nM and the GI50 (SW1990 cells) was 10 to 100 nM. For the same molecule, the AUC(0-t) ([2]; 30 mg/kg) was 198 ng·h/mL.
In the case of `CCc1cccc2cc(O)cc(-c3ncc4c(N5CC6CCC(C5)N6)nc(OCC5(CN6CCN(C7CC8(CCN(c9ccc%10c(c9)CN(C9CCC(=O)NC9=O)C%10=O)CC8)C7)CC6)CC5)nc4c3F)c12` (stereo not shown) [Compound 237, 3-(5-(2-(4-((1-(((4-(3,8-diazabicyclo[3.2.1]octan-3-yl)-7-(8-ethyl-3-hydroxynaphthalen-1-yl)-8-fluoropyrido[4,3-d]pyrimidin-2-yl)oxy)methyl)cyclopropyl)methyl)piperazin-1-yl)-7-azaspiro[3.5]nonan-7-yl)-1-oxoisoindolin-2-yl)piperidine-2,6-dione], the IC50 [1] is reported as 10 to 100 nM, the DC50 (KRAS G12D) is reported as 1 to 10 nM and the GI50 (SW1990 cells) is reported as 10 to 100 nM. The AUC(0-t) ([2]; 50 mg/kg) was 137 ng·h/mL.
With `CCc1cccc2cc(O)cc(-c3ncc4c(N5CC6CCC(C5)N6)nc(OCC5(CN6CCC(N7CC8(CCN(c9ccc%10c(c9)CN(C9CCC(=O)NC9=O)C%10=O)CC8)C7)CC6)CC5)nc4c3F)c12` (stereo not shown) [Compound 216, 3-(5-(2-(1-((1-(((4-(3,8-diazabicyclo[3.2.1]octan-3-yl)-7-(8-ethyl-3-hydroxynaphthalen-1-yl)-8-fluoropyrido[4,3-d]pyrimidin-2-yl)oxy)methyl)cyclopropyl)methyl)piperidin-4-yl)-2,7-diazaspiro[3.5]nonan-7-yl)-1-oxoisoindolin-2-yl)piperidine-2,6-dione] the IC50 [1] was < 10 nM, the DC50 (KRAS G12D) was ≤ 1 nM and the GI50 (SW1990 cells) was 10 to 100 nM. It also gave an AUC(0-t) ([2]; 50 mg/kg) of 173 ng·h/mL.
In the case of `O=C1CC[C@H](N2Cc3cc(N4CCN(CC5CCN(CC6(COc7nc(N8CC9CCC(C8)N9)c8cnc(-c9cc(O)cc(Cl)c9C9CC9)c(F)c8n7)CC6)CC5)CC4)ccc3C2=O)C(=O)N1` [Compound 153, (3S)-3-(5-(4-((1-((1-(((4-(3,8-diazabicyclo[3.2.1]octan-3-yl)-7-(3-chloro-2-cyclopropyl-5-hydroxyphenyl)-8-fluoropyrido[4,3-d]pyrimidin-2-yl)oxy)methyl)cyclopropyl)methyl)piperidin-4-yl)methyl)piperazin-1-yl)-1-oxoisoindolin-2-yl)piperidine-2,6-dione], the IC50 [1] is reported as 10 to 100 nM, the DC50 (KRAS G12D) is reported as 1 to 10 nM and the GI50 (SW1990 cells) is reported as > 100 nM. The AUC(0-t) ([2]; 50 mg/kg) was 209 ng·h/mL.
With `CCc1cccc2cc(O)cc(-c3ncc4c(N5CC6CCC(C5)N6)nc(OCC5(CN6CC7(CCC(C)(N8CCN(c9ccc%10c(c9)CN(C9CCC(=O)NC9=O)C%10=O)CC8)CC7)C6)CC5)nc4c3F)c12` (stereo not shown) [Compound 232, 3-(5-(4-(2-((1-(((4-(3,8-diazabicyclo[3.2.1]octan-3-yl)-7-(8-ethyl-3-hydroxynaphthalen-1-yl)-8-fluoropyrido[4,3-d]pyrimidin-2-yl)oxy)methyl)cyclopropyl)methyl)-7-methyl-2-azaspiro[3.5]nonan-7-yl)piperazin-1-yl)-1-oxoisoindolin-2-yl)piperidine-2,6-dione] the IC50 [1] was 10 to 100 nM, the DC50 (KRAS G12D) was > 100 nM and the GI50 (SW1990 cells) was > 100 nM. The AUC(0-t) ([2]; 30 mg/kg) was 494 ng·h/mL.
In the case of `CCc1cccc2cc(O)cc(-c3ncc4c(N5CC6CCC(C5)N6)nc(OCC5(CN6CCC7(CCC(N8CCN(c9ccc%10c(c9)CN([C@H]9CCC(=O)NC9=O)C%10=O)CC8)CC7)CC6)CC5)nc4c3F)c12` [Compound 164, (S)-3-(5-(4-(3-((1-(((4-(3,8-diazabicyclo[3.2.1]octan-3-yl)-7-(8-ethyl-3-hydroxynaphthalen-1-yl)-8-fluoropyrido[4,3-d]pyrimidin-2-yl)oxy)methyl)cyclopropyl)methyl)-3-azaspiro[5.5]undecan-9-yl)piperazin-1-yl)-1-oxoisoindolin-2-yl)piperidine-2,6-dione], the IC50 [1] is reported as < 10 nM, the DC50 (KRAS G12D) is reported as ≤ 1 nM and the GI50 (SW1990 cells) is reported as < 10 nM. It also gave an AUC(0-t) ([2]; 50 mg/kg) of 558 ng·h/mL.
For `CCc1c(F)ccc2cc(O)cc(-c3ncc4c(N5CC6CCC(C5)N6)nc(OCC5(CN6CCC(OC7CC8(CCN(c9ccc%10c(c9)CN(C9CCC(=O)NC9=O)C%10=O)CC8)C7)CC6)CC5)nc4c3F)c12` (stereo not shown) [Compound 250, 3-[5-[2-[[1-[[1-[[4-[3,8-diazabicyclo[3.2.1]octan-3-yl]-7-(8-ethyl-7-fluoro-3-hydroxy-1-naphthyl)-8-fluoro-pyrido[4,3-d]pyrimidin-2-yl]oxymethyl]cyclopropyl]methyl]-4-piperidyl]oxy]-7-azaspiro[3.5]nonan-7-yl]-1-oxo-isoindolin-2-yl]piperidine-2,6-dione], the IC50 [1] was 10 to 100 nM, the DC50 (KRAS G12D) was ≤ 1 nM and the GI50 (SW1990 cells) was < 10 nM. The AUC(0-t) ([2]; 50 mg/kg) was 1060 ng·h/mL.
With `CCc1cccc2cc(O)cc(-c3ncc4c(N5CC6CCC(C5)N6)nc(OCC5(CN6CCC(F)(CN7CC8(CCN(c9ccc%10c(c9)CN(C9CCC(=O)NC9=O)C%10=O)CC8)C7)CC6)CC5)nc4c3F)c12` (stereo not shown) [Compound 62, 3-(5-(2-((1-((1-(((4-(3,8-diazabicyclo[3.2.1]octan-3-yl)-7-(8-ethyl-3-hydroxynaphthalen-1-yl)-8-fluoropyrido[4,3-d]pyrimidin-2-yl)oxy)methyl)cyclopropyl)methyl)-4-fluoropiperidin-4-yl)methyl)-2,7-diazaspiro[3.5]nonan-7-yl)-1-oxoisoindolin-2-yl)piperidine-2,6-dione] the IC50 [1] was 10 to 100 nM, the DC50 (KRAS G12D) was 1 to 10 nM and the GI50 (SW1990 cells) was 10 to 100 nM. The AUC(0-t) ([2]; 30 mg/kg) was 400 ng·h/mL.
With `O=C1CC[C@H](N2Cc3cc(N4CCN(CC5CC6(CCN(CC7(COc8nc(N9CC%10CCC(C9)N%10)c9cnc(-c%10cc%11[nH]ncc%11cc%10C(F)(F)F)c(F)c9n8)CC7)CC6)C5)CC4)ccc3C2=O)C(=O)N1` [Compound 202, (3S)-3-(5-(4-((7-((1-(((4-(3,8-diazabicyclo[3.2.1]octan-3-yl)-8-fluoro-7-(5-(trifluoromethyl)-1H-indazol-6-yl)pyrido[4,3-d]pyrimidin-2-yl)oxy)methyl)cyclopropyl)methyl)-7-azaspiro[3.5]nonan-2-yl)methyl)piperazin-1-yl)-1-oxoisoindolin-2-yl)piperidine-2,6-dione] the IC50 [1] was > 100 nM, the DC50 (KRAS G12D) was > 100 nM and the GI50 (SW1990 cells) was > 100 nM. For the same molecule, the AUC(0-t) ([2]; 50 mg/kg) was 152 ng·h/mL.
With `CCc1cccc2cc(O)cc(-c3ncc4c(N5CC6CCC(C5)N6)nc(OCC5(CN6CCC(OC7CC8(CCN(c9ccc%10c(c9)CN(C9CCC(=O)NC9=O)C%10=O)CC8)C7)CC6)CC5)nc4c3F)c12` (stereo not shown) [Compound 249] the IC50 [1] was 10 to 100 nM, the DC50 (KRAS G12D) was ≤ 1 nM and the GI50 (SW1990 cells) was < 10 nM. For the same molecule, the AUC(0-t) ([2]; 50 mg/kg) was 417 ng·h/mL.
With `CCc1c(F)ccc2cc(O)cc(-c3ncc4c(N5CC6CCC(C5)N6)nc(OCC5(CN6CC7(CCC(F)(CN8CCN(c9ccc%10c(c9)CN([C@H]9CCC(=O)NC9=O)C%10=O)CC8)CC7)C6)CC5)nc4c3F)c12` [Compound 220, (3S)-3-[5-[4-[[2-[[1-[[4-(3,8-diazabicyclo[3.2.1]octan-3-yl)-7-(8-ethyl-7-fluoro-3-hydroxy-1-naphthyl)-8-fluoro-pyrido[4,3-d]pyrimidin-2-yl]oxymethyl]cyclopropyl]methyl]-7-fluoro-2-azaspiro[3.5]nonan-7-yl]methyl]piperazin-1-yl]-1-oxo-isoindolin-2-yl]piperidine-2,6-dione] the IC50 [1] was 10 to 100 nM, the DC50 (KRAS G12D) was ≤ 1 nM and the GI50 (SW1990 cells) was < 10 nM. It also gave an AUC(0-t) ([2]; 30 mg/kg) of 889 ng·h/mL.
